Results from US11932657B2, “Heterocyclic compound” (priority 2018, dated 2024).

How the values were obtained:
[1] = molecular target: T1, aryl hydrocarbon receptor (AhR) (Homo sapiens, UniProt P35869); test: AhR reporter gene assay (aryl hydrocarbon receptor antagonist activity, DRE-Luc HepG2 cells, TCDD-stimulated luciferase); format: cell-based
T1 construct: DRE-Luc HepG2 cells subcultured in a 225 cm^2 flask; endogenous in cells; host or cells: HepG2 (ATCC), stably transfected with the reporter hCYP1A1/pGL4.27 (DRE-Luc HepG2)
T1 sequence (P35869 11-848): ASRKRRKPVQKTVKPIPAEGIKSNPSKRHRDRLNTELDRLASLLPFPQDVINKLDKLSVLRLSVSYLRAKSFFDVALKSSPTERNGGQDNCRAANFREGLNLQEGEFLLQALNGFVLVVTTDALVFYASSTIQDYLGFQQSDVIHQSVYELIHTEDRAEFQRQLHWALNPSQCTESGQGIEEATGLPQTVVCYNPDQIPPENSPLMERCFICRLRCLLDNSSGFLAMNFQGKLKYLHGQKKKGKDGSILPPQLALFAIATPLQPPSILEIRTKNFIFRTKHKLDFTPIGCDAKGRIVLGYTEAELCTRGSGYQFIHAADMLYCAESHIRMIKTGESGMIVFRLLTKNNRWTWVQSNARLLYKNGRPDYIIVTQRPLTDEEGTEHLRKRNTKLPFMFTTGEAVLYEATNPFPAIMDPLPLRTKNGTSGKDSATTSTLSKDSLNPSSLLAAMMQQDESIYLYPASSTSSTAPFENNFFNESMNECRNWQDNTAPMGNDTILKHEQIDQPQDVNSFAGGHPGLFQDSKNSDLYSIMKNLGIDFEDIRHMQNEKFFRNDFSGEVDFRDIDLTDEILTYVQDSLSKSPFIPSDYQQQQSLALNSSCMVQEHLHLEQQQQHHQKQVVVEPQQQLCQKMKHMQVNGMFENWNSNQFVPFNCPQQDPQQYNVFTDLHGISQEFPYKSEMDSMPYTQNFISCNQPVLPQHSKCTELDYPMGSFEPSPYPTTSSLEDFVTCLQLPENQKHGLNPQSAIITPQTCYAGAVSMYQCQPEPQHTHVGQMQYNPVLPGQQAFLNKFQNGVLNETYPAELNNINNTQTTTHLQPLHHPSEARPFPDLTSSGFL
Protocol: Test Example 1 (Aryl Hydrocarbon Receptor Antagonist Activity)
An expression vector, hCYP1A1/pGL4.27 was introduced into HepG2 cells (derived from American Type Culture Collection (ATCC)) that were seeded in 6-well plates (#3810-006 (Iwaki)) at 1.2×10^6 cells/well, using Lipofectamine 3000 (#100022050 (Invitrogen)). Referring to Garrion P M et al., Fundam Appl Toxicol, 30, 194 (1996), the vector hCYP1A1/pGL4.27 incorporated the human CYP1A1 promotor region including dioxin responsive element (DRE) region of the AhR binding region into the XhoI-BglII restriction enzyme site of pGL4.27 (#E8451 (Promega)). After 24 hours, medium-1 was replaced, and after 48 hours, the medium-1 containing hygromycin B (200 to 1000 μg/mL) was subjected to drug treatment. Culturing using the medium containing hygromycin B was continued for about 1 month to clone 24 clones showing drug resistance. A cell line showing high reporter activity was selected (DRE-Luc HepG2) from drug resistant lines using as an indicator luciferase activity (Dual-Glo Luciferase substrate, #E297A (Promega)) relative to an AhR agonist, 2,3,7,8-tetrachlorodibenzo-p-dioxin (TCDD) (#ED-901-B (CIL.)).
DRE-Luc HepG2 cells subcultured in a 225 cm^2 flask (#11-0005 (Iwaki)) were washed with PBS (#1419-144 (Gibco), Lot: 1896207), and thereto was added 8 mL of Trypsin-EDTA (0.05%) (#25300-054 (Gibco)). Thereafter, an excessive liquid was removed from the mixture, and the cells were stood at room temperature for 5 minutes. Thereto was added 10 mL of medium-2, the cells were recovered through a cell strainer (#352350 (Falcon), 70 μm), and the number of cells were then counted using a hemocytometer. A cell suspension was prepared at 3×10^5 cells/mL, 100 μL/well of the cell suspension was seeded into a 96-well white plate (#136101, F96 Microwell (Nunc)), and the cells were then cultured in a CO2 incubator (5% CO2, 37° C.). After 24 hours, the medium was aspirated, and thereto was added 100 μL of an assay medium solution including the compound of the present invention, and the cells were cultured in the CO2 incubator (5% CO2, 37° C.). After 24 hours, 11 μL of an assay medium solution including 5×10^−10 M TCDD (#ED-901-B (CIL.)) was added thereto and the cells were cultured in the CO2 incubator (5% CO2, 37° C.). After 24 hours, 50 μL of a reaction substrate (#E253B, Steady-Glo Luciferase substrate (Promega)) for Firefly Luciferase enzyme reaction was added to each well, and after 5 minute-shaking, the light emission intensity was measured with Wallac ARVO 1420sx (PerkinElmer).

[2] = test system: immortalized megakaryocyte line (SeV2-MKCL); test: Platelet production: static culturing of immortalized megakaryocyte line; format: cell-based; settings: compound final concentration 0.1 μM, static culturing 6 to 7 days, control (DMSO) set to 1; platelets = CD41, CD42b and CD42a-positive cells
Protocol: Test Example 2 (Platelet Production: Static Culturing)
The immortalized megakaryocyte line (SeV2-MKCL) obtained according to the method described in WO 2016/204256 was washed twice with D-PBS(−) and then cultured in medium not containing doxycycline to terminate forced expression. Culturing was implemented by seeding the cells at 1 mL/well in a 24-well plate (#662160 (Greiner Rio-One)) at a seeding density of 1×10^5 cells/mL followed by static culturing in the medium indicated below.
The medium was obtained by adding the following components to IMDM serving as the basal medium (concentrations indicate final concentrations).
Culturing was implemented under conditions of 37° C. and 5% CO2. At the same time, the compound of the present invention (final concentration 0.1 μM) or DMSO (control) was added and cultured for 6 to 7 days. Thereafter, the number of platelets (CD41, CD42b, and CD42a-positive cells) was measured. The measurement method was as shown below. The same procedure was performed with the control.
A portion of the culture supernatant was harvested 6 to 7 days after culturing to terminate gene expression, and suspended with the following antibodies to stain them. eFluor 450-labeled anti-CD42a antibody (#48-0428-42 (eBioscience)) PE-labeled anti-CD42b antibody (#303906 (BioLegend)) APC-labeled anti-CD41 antibody (#303710 (BioLegend)) The number of platelets was counted using FACSVerse manufactured by BD 30 minutes after the stain reaction. In the measurement of the number of platelets, the number of cells was corrected using Flow-count beads (#7547053 (Beckman Coulter)).
The number of platelets produced from one megakaryocyte cell was calculated based on the number of platelets in the sample obtained by the FACS measurement, and the result was defined as platelet production efficiency (PLT/MK) and used for evaluation of drug efficacy of the compound. In addition, the specific activity at the time when the platelet production efficiency of the control was set to 1 was indicated as fold increase.

| SMILES | IC50 [1] [nM] | Static (vs veh): fold increase of platelet production efficiency (PLT/MK) [2] |
| --- | --- | --- |
| CC1(C)COc2nc3c(NCCc4c[nH]c5ccccc45)nc(-c4ccc5nccn5c4)nc3n21 [Example 110] | 40 | 6.1 |
| CC1(C)COc2nc3c(NCCc4c[nH]c5ccccc45)nc(-c4cncc(C(F)F)c4)nc3n21 [Example 101] | 29 | 3.8 |
| CC1(C)COc2nc3c(NCCc4ccc(O)c(-c5ccccc5Cl)c4)nc(-c4cncc(F)c4)nc3n21 [Example 5] | 36 | 5.1 |
| CC1(C)COc2nc3c(NCCc4ccc(O)c(-c5cc(F)cc(C#N)c5)c4)nc(-c4cncc(F)c4)nc3n21 [Example 56] | 13 | 6.5 |
| CC1(C)COc2nc3c(NCCc4ccc(O)c(-c5ccccc5)c4)nc(-c4cncc(F)c4)nc3n21 [Example 1, 4-[2-[[2-(5-fluoropyridin-3-yl)-8,8-dimethyl-7H-purino[8,9-b][1,3]oxazol-4-yl]amino]ethyl]J-2-phenylphenol] | 4.4 | 6.5 |
| CC1(C)COc2nc3c(NCCc4ccc(O)c(-c5ccc(F)cc5F)c4)nc(-c4cncc(F)c4)nc3n21 [Example 42] | 6.1 | 4.8 |
| CCc1cccc(-c2cc(CCNc3nc(-c4cncc(F)c4)nc4c3nc3n4C(C)(C)CO3)ccc2O)c1 [Example 15] | 5.5 | 11 |
| Cc1cncc(-c2nc(NCCc3ccc(O)c(-c4ccc(F)cc4)c3)c3nc4n(c3n2)C(C)(C)CO4)c1 [Example 25] | 4.4 | 5.7 |
| CC1(C)COc2nc3c(NCCc4c[nH]c5ccccc45)nc(-c4cccc(F)c4F)nc3n21 [Example 86] | 21 | 4.4 |
| CN(C)C(=O)Cc1cccc(-c2cc(CCNc3nc(-c4cncc(F)c4)nc4c3nc3n4C(C)(C)CO3)ccc2O)c1 [Example 79] | 6.6 | 2.9 |
| CC1(C)COc2nc3c(NCCc4ccc(O)c(-c5ccccc5F)c4)nc(-c4cncc(F)c4)nc3n21 [Example 2, 2-(2-fluorophenyl)-4-[2-[[2-(5-fluoropyridin-3-yl)-8,8-dimethyl-7H-purino[8,9-b][1,3]oxazol-4-yl]amino]ethyl]phenol] | 9.5 | 5.6 |
| CC1(C)CSc2nc3c(NCCc4ccc(O)c(-c5ccccc5)c4)nc(-c4cncc(F)c4)nc3n21 [Example 47] | 0.38 | 3.7 |
| CC1(C)COc2nc3c(NCCc4ccc(O)c(-c5ccc(F)cc5)c4)nc(-c4cncc(F)c4)nc3n21 [Example 4] | 5 | 6.7 |
| Cc1cncc(-c2nc(NCCc3ccc(O)c(-c4ccccc4F)c3)c3nc4n(c3n2)C(C)(C)CO4)c1 [Example 23] | 9.6 | 8.0 |
| CC1(C)COc2nc3c(NCCc4ccc(O)c(-c5cc(C#N)ccc5F)c4)nc(-c4cncc(C#N)c4)nc3n21 [Example 65] | 3.9 | 3.3 |
| COc1cccc(-c2cc(CCNc3nc(-c4cncc(F)c4)nc4c3nc3n4C(C)(C)CO3)ccc2O)c1 [Example 13, 4-[2-[[2-(5-fluoropyridin-3-yl)-8,8-dimethyl-7H-purino[8,9-b][1,3]oxazol-4-yl]amino]ethyl]-2-(3-methoxyphenyl)phenol] | 29 | 4.7 |
| C[C@@H]1CSc2nc3c(NCCc4ccc(O)c(-c5cccc(C#N)c5)c4)nc(-c4cncc(F)c4)nc3n21 [Example 58] | 0.46 | 5.1 |
| CC1(C)CSc2nc3c(NCCc4ccc(O)c(-c5cccc(F)c5)c4)nc(-c4ccc5nccn5c4)nc3n21 [Example 53] | 1.2 | 5.3 |
| C[C@@H]1CSc2nc3c(NCCc4ccc(O)c(-c5cccc(C#N)c5)c4)nc(-c4cncc(C#N)c4)nc3n21 [Example 61] | 0.71 | 3.9 |
| CC1(C)CSc2nc3c(NCCc4ccc(O)c(-c5ccccc5F)c4)nc(-c4cncc(C#N)c4)nc3n21 [Example 38] | 0.49 | 4.9 |
| COc1ccccc1-c1cc(CCNc2nc(-c3cncc(F)c3)nc3c2nc2n3C(C)(C)CO2)ccc1O [Example 41] | 10 | 7.0 |
| CC1(C)CSc2nc3c(NCCc4ccc(O)c(-c5cncc(C#N)c5)c4)nc(-c4cncc(F)c4)nc3n21 [Example 76] | 5.7 | 2.4 |
| Cc1cncc(-c2cc(CCNc3nc(-c4cncc(F)c4)nc4c3nc3n4C(C)(C)CO3)ccc2O)c1 [Example 72] | 9.8 | 6.8 |
| CC1(C)CSc2nc3c(NCCc4ccc(O)c(-c5ccccc5F)c4)nc(-c4cncc(F)c4)nc3n21 [Example 8] | 0.11 | 5.1 |
| CC1(C)CSc2nc3c(NCCc4ccc(O)c(-c5cccc(F)c5)c4)nc(-c4cncc(F)c4)nc3n21 [Example 9] | 0.32 | 4.9 |
